# Test results reported in patent US12187723B2 (BRISTOL-MYERS SQUIBB COMPANY, priority 2019, dated 2025).
# Columns and labels:
# human TLR8 = target: T1, human TLR8 (Homo sapiens, UniProt Q9NR97); assay: TLR8 inhibition reporter assay (HEK-Blue SEAP); assay type: cell-based; conditions: HEK-Blue cells overexpressing human TLR8, R848 15.9 μM, 22 hour incubation
# T1 construct: host or cells: HEK-Blue cells
# T1 sequence (Q9NR97 27-1041): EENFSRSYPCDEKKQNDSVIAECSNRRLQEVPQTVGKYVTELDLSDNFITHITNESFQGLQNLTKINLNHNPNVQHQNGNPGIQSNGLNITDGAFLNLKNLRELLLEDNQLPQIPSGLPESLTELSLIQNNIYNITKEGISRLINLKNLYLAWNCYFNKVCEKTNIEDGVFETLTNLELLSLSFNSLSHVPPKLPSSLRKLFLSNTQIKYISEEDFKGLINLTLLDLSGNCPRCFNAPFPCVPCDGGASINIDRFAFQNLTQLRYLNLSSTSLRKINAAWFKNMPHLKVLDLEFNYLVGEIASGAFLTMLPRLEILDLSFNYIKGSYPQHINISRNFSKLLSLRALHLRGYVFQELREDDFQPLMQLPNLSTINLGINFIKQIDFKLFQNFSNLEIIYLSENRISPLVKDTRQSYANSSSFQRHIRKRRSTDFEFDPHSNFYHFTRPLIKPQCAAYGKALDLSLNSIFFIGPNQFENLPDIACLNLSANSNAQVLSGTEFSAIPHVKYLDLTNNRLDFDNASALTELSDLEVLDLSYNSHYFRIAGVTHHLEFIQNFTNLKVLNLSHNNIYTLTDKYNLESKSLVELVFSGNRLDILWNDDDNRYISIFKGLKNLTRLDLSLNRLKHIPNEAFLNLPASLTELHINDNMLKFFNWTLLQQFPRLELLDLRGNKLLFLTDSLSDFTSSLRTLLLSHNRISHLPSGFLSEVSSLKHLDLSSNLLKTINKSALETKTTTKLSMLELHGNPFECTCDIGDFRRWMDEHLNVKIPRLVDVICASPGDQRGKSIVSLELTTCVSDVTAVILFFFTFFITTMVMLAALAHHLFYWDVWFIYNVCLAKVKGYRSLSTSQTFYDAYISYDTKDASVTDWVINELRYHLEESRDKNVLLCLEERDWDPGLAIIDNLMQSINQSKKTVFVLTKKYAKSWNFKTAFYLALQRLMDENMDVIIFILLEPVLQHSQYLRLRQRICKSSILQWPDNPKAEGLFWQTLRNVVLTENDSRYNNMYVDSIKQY
# Summary of the method: (§1)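 HEK-Blue cells overexpressing human TLR7, TLR8 or TLR9 carry a SEAP reporter driven by NF-κB/AP-1 sites. Compounds (0.05 nM–50 μM) were preincubated 30 min at room temperature, then cells were stimulated with gardiquimod 7.5 μM (TLR7), R848 15.9 μM (TLR8) or ODN2006 5 nM (TLR9) for 22 h at 37 °C.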
# human TLR9 = target: T2, human TLR9 (Homo sapiens, UniProt Q9NR96); assay: TLR9 inhibition reporter assay (HEK-Blue SEAP); assay type: cell-based; conditions: HEK-Blue cells overexpressing human TLR9, ODN2006 5 nM, 22 hour incubation
# T2 construct: host or cells: HEK-Blue cells
# T2 sequence (Q9NR96 26-1032): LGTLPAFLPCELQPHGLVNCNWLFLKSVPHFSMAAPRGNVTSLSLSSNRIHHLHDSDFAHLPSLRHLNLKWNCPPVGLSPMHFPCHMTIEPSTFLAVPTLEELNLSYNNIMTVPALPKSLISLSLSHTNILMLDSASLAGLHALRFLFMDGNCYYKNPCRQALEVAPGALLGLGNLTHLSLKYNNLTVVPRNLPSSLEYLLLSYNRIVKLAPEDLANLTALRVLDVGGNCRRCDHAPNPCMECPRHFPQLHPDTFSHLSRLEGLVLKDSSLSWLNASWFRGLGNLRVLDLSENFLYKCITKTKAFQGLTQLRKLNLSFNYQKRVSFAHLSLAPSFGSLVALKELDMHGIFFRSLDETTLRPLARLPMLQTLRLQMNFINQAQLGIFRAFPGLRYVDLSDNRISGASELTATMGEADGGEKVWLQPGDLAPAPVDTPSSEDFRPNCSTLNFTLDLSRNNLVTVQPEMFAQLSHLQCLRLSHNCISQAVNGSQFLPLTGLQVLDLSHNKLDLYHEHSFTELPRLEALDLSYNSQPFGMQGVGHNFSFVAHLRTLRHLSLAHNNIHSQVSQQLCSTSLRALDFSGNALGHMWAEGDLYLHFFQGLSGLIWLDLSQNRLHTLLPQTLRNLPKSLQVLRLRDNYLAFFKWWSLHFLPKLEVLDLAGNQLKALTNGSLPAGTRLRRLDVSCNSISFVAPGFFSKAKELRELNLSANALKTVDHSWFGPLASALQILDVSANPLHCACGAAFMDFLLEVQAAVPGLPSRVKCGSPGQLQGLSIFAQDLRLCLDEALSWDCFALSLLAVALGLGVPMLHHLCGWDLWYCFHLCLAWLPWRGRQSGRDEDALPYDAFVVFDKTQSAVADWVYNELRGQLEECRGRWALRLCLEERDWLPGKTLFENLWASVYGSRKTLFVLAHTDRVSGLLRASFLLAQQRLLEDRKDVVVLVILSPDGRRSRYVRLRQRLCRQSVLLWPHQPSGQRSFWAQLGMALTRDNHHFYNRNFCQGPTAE
# Summary of the method: as §1
SMILES,IC50 (human TLR8) [nM],IC50 (human TLR9) [nM]
"CCN[C@H]1CC[C@@H](n2c(=O)[nH]c3cc(-c4cc(C)c5ncnn5c4)c(C)cc32)CC1 [Example 21, 1-((1s,4s)-4-(ethylamino)cyclohexyl)-6-methyl-5-(8-methyl-[1,2,4]triazolo[1,5-a]pyridin-6-yl)-1,3-dihydro-2H-benzo[d]imidazol-2-one]",13.3,7060
"COc1cc(-c2cc3[nH]c(=O)n(C4CCC(N5CCC(F)(F)C5)CC4)c3cc2C(C)C)cn2ncnc12 (single isomer, unassigned) [Example 294, 1-(4-(3,3-difluoropyrrolidin-1-yl)cyclohexyl)-6-isopropyl-5-(8-methoxy-[1,2,4]triazolo[1,5-a]pyridin-6-yl)-1,3-dihydro-2H-benzo[d]imidazol-2-one]",3.14,35200
"Cc1cc2c(cc1-c1cc(C)c3ncnn3c1)[nH]c(=O)n2[C@@H]1CCCNC1 [1 ED, (R)-6-methyl-5-(8-methyl-[1,2,4]triazolo[1,5-a]pyridin-6-yl)-1-(piperidin-3-yl)-1,3-dihydro-2H-benzo[d]imidazol-2-one]",38.1,524
"COc1cc(-c2cc3[nH]c(=O)n(C4CCC(N5C6CCC5COC6)CC4)c3cc2C(C)C)cn2ncnc12 (single isomer, unassigned) [Example 253, 1-(4-(3-oxa-8-azabicyclo[3.2.1]octan-8-yl)cyclohexyl)-6-isopropyl-5-(8-methoxy-[1,2,4]triazolo[1,5-a]pyridin-6-yl)-1,3-dihydro-2H-benzo[d]imidazol-2-one]",4.33,11100
"COC[C@@H]1CCN(C2CCC(n3c(=O)[nH]c4cc(-c5cc(OC)c6ncnn6c5)c(C(C)C)cc43)CC2)C1 (single isomer, unassigned) [Example 290]",0.53,7100
Cc1cc2c(cc1-c1cc(C)c3ncnn3c1)[nH]c(=O)n2[C@H]1CC[C@@H](N)CC1 [1 EE],31.8,2160
"COc1cc(-c2cc3[nH]c(=O)n(C4CCC(N5CC(F)(F)C5)CC4)c3cc2C(C)C)cn2ncnc12 (single isomer, unassigned) [Example 297]",8.4,16200
"COc1cc(-c2cc3[nH]c(=O)n([C@H]4CC[C@@H](N)CC4)c3cc2C)cn2ncnc12 [1 EG, 1-((1s,4s)-4-aminocyclohexyl)-5-(8-methoxy-[1,2,4]triazolo[1,5-a]pyridin-6-yl)-6-methyl-1,3-dihydro-2H-benzo[d]imidazol-2-one]",32.6,3650
